Among the data in BindingDB's records for doi:10.1016/j.bmcl.2019.02.028 (Indiana University School of Medicine, 2019) are Kd values, retold here.

For this assay, the target named is Chaperonin GroEL (Escherichia coli (strain K12), UniProt P0A6F5). In words: Binding affinity to Escherichia coli GroEL expressed in Escherichia coliDH5alpha by ITC assay. Background: Isothermal titration calorimetry measures the heat released or taken up as one component is titrated into another.
Sequence of Chaperonin GroEL (P0A6F5 2-548 limits assumed): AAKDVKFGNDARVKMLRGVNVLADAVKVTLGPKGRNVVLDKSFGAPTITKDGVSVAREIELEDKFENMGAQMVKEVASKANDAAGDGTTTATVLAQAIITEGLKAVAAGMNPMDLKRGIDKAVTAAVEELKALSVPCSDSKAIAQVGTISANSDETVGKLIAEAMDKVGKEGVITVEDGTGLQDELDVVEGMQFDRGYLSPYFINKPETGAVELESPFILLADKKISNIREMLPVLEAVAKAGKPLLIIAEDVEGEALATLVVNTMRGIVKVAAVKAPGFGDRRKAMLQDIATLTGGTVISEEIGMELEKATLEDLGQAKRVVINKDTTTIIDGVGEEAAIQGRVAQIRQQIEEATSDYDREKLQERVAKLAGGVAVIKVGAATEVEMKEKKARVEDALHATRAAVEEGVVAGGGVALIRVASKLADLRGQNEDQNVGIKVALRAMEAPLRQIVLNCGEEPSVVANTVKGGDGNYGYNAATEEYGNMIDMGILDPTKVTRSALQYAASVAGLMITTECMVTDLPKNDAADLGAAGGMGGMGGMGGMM

On to `CC1=CCC(C(=O)/N=C2\CC=C(S(=O)(=O)O)c3cc(S(=O)(=O)O)cc(S(=O)(=O)O)c32)=C/C1=N/C(=O)C1=CC=C/C(=N\C(=O)/N=C2\C=CC=C(C(=O)/N=C3/CC(C(=O)/N=C4\CC=C(S(=O)(=O)O)c5cc(S(=O)(=O)O)cc(S(=O)(=O)O)c54)=CC=C3C)C2)C1`, for which binding was characterised by a dissociation constant (Kd) of 9.8 µM.

Usually Kd stands for the concentration at which binding is half-saturated. Low values mean a tighter complex, high ones a looser complex.
